Reference: the NIST ThermoML archive (doi:10.1016/j.tca.2015.03.016)
Several values for one entry are separate records, joined by “and”; a condition that tells them apart may be missing. Equal values may be shown once.

Details: Liquid, Transpiration method

CN(C)C1CCCCC1 [N,N-dimethylcyclohexylamine]
Details | vapor or sublimation pressure
275.3 K | 0.0902 kPa and 0.0943 kPa
275.4 K | 0.0923 kPa
278.3 K | 0.1123 kPa
281.2 K | 0.1456 kPa
284.2 K | 0.1766 kPa
287.2 K | 0.2125 kPa
290.3 K | 0.2601 kPa
293.2 K | 0.3186 kPa
296.2 K | 0.383 kPa
299.2 K | 0.472 kPa
302.2 K | 0.5659 kPa
305.3 K | 0.6634 kPa
308.3 K | 0.8071 kPa
311.2 K | 0.912 kPa
314.3 K | 1.106 kPa

C1CCC(NC2CCCCC2)CC1 [N-cyclohexylcyclohexanamine]
Details | vapor or sublimation pressure [kPa]
295.4 K | 0.00322
298.3 K | 0.00416
301.2 K | 0.0055
304.2 K | 0.00706
307.2 K | 0.00889
310.2 K | 0.01123
313.2 K | 0.01433
315.1 K | 0.0165
318.3 K | 0.02093
321.2 K | 0.02576
324.2 K | 0.03192
327.2 K | 0.03941
330.2 K | 0.0492
333.2 K | 0.05903

CNC1CCCCC1 [N-methylcyclohexylamine]
Details | vapor or sublimation pressure [kPa]
275.2 K | 0.1412
278.2 K | 0.1788
281.2 K | 0.2211
284.2 K | 0.2727
287.2 K | 0.3362
290.4 K | 0.4224
293.2 K | 0.4889
296.2 K | 0.606
299.2 K | 0.7392
302.2 K | 0.8882
305.2 K | 1.044
308.3 K | 1.278
311.2 K | 1.51
314.2 K | 1.784

NC1CCCCC1 [cyclohexylamine]
Details | vapor or sublimation pressure [kPa]
283.2 K | 0.4635
286.2 K | 0.5583
290.1 K | 0.7237
293.3 K | 0.9124
296.2 K | 1.06
298.1 K | 1.182
299.3 K | 1.28
302.3 K | 1.541
305.3 K | 1.788
308.3 K | 2.115
